One series has as its system muscarinic. To be noted: cited from earlier work.
The target of the next series is T1, 5-HT2C (Homo sapiens, UniProt P28335).
T1 sequence (P28335 33-458): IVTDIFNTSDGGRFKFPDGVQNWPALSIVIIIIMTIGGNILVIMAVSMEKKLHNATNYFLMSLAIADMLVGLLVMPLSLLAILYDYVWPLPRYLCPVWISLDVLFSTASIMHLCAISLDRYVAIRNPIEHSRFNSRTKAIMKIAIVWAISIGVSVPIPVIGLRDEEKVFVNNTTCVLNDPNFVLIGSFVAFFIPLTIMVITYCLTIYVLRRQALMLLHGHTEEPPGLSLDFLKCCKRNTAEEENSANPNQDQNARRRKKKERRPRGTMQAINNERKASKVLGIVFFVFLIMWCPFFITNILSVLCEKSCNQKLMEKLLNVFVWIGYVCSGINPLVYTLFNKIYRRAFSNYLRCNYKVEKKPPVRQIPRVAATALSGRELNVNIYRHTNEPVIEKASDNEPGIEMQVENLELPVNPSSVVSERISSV
The settings on record: cited from earlier work.

The nature of series [1]: solubility of free base in organic solvents. The settings on record: variety of organic solvents. The class given is physicochemical.
Another series deals with H1 histaminergic (Homo sapiens, UniProt P35367). To be noted: cited from earlier work.
The conditions of series [2]: free base form; cited from earlier work.
The conditions of series [3]: salt form of U.S. Pat. No. 7,183,282, precipitated from diethyl ether; cited from earlier work.

SMILES strings stand for the structures.

Chain of H1 histaminergic (P35367 whole entry): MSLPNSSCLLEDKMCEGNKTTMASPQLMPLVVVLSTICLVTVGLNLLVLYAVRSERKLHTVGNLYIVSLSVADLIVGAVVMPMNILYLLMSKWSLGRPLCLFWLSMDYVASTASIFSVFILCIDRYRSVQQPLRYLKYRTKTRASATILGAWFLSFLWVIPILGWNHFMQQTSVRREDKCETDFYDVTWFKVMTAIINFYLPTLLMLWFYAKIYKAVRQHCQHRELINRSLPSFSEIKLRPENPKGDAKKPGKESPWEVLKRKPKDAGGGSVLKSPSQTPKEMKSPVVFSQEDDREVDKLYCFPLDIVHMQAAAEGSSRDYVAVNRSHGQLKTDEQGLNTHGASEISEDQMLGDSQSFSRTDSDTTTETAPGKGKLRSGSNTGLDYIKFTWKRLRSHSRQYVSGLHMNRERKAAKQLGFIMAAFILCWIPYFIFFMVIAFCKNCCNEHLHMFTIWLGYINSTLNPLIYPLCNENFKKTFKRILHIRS

On to `CN1CCN2c3c(cccc31)[C@@H]1CN(CCCC(=O)c3ccc(F)cc3)CC[C@@H]12` [ITI-007, 1-(4-fluoro-phenyl)-4-((6bR,10aS)-3-methyl-2,3,6b,9,10,10a-hexahydro-1H,7H-pyrido[3′,4′:4,5]pyrrolo[1,2,3-de]quinoxalin-8-yl)-butan-1-one], for which the binding to receptor entry in the series with muscarinic, at 5-HT2C and at H1 histaminergic was “negligible binding” throughout. Also, the “solubility in organic solvents” value in series [1] is listed as “good solubility”. The aqueous solubility entry in series [2] is “poor aqueous solubility”.
Regarding `CN1CCN2c3c(cccc31)C1CN(CCCC(=O)c3ccc(F)cc3)CCC12.Cl` (stereo not shown) [hydrochloride salt form of ITI-007], in series [3], the hygroscopicity result is listed as “hygroscopic” and the stability entry is “poor stability”.

These data come from patent US11440911B2, “Salts and crystals” (INTRA-CELLULAR THERAPIES, INC., priority 2017, dated 2022).
